Values quoted from earlier work as cited in US8062870B2, “Enantiomerically resolving acyloxyalkyl thiocarbonates used in synthesizing acyloxyalkyl carbamate prodrugs” (XenoPort, Inc., priority 2008, dated 2011).

Conditions: dosed either orally or directly into the colon of a mammal

In the case of `CC(C)C[C@H](CNC(=O)OC(OC(=O)C(C)C)C(C)C)CC(=O)O` (some centres unmarked), the bioavailability as pregabalin is listed as “high bioavailability”.

In the case of `CC(C)C[C@H](CNC(=O)OC(C)OC(=O)c1ccccc1)CC(=O)O` (some centres unmarked), the bioavailability as pregabalin is listed as “high bioavailability”.
